Laboratory results reported in patent US3970648A, “2-[2-(5-Nitro-2-furyl)vinyl]-4-(anilino)quinazolines” (Diamond Shamrock Corporation, priority 1974, dated 1976).

Key:
Type in all cases: cell-based
Escherichia coli = assay: Bactericide test, Escherichia coli (agar streak plate)
From the text: (§1) Test formulations were examined for bactericidal and/or bacteriostatic activity against the test organisms shown in Tables A and B. These organisms were chosen as being representative of commercially important pathogens affecting animal agriculture. The antibiotic chlortetracycline was chosen as a positive control, since it has a broad spectrum of activity against a large number of organisms, and its activity can be used for comparative purposes.
(§2) Basic test formulations of the product of Examples I, II, III, and of chlortetracycline were prepared by dissolving 16 mg (0.016 g) in 2.0 ml of stock emulsifier solution (0.25% Triton X-155 in acetone by volume) and making each solution up to 50 ml with deionized water. The concentration of the test compound in the basic formulation was 320 ppm. Lower concentrations of the test compound were obtained by diluting the basic formulation with a 4% solution of the stock emulsifier in deionized water so that each dilution in the series differed only in test compound content.
(§3) Nutrient-tryptic soy agar (NTA) consisting of 2.0% Difco Bactoagar 0.8% nutrient broth (Difco), and 0.5% tryptic soy broth (Difco) was prepared and sterilized by autoclaving. A 2 ml aliquot of each test formulation was added to 8 ml of molten NTA. This mixture was then plated in a sterile polystyrene petri dish (100 × 15 mm). After the agar was set, suspensions of each of the test organisms were simultaneously streaked onto the surface of the agar. The inoculated plates were incubated for 48 hr at 28°C. The inhibition of growth of each organism was rated by visual comparison with the organism developing on non-treated agar. Growth inhibition reported as per cent control was rated in three categories as follows: 0% control, growth equivalent to that on non-treated agar; 50% control, sparse development and separated colonies; 100% control, no visible growth or development of colonies.
(§4) Test formulations of the product of Example IV were examined for bactericidal and/or bacteriostatic activity against the test organisms shown in Table B using the Bactericide Test described in Example V. The inhibition of organism growth with each diluted test formulation was rated visually by comparison with the organism developing on a non-treated control agar plate. Growth inhibition reported as per cent control was rated in three categories as follows: 0% control, growth equivalent to that on non-treated agar; 50% control is sparse development and separated colonies; and 100% control, development of individual colonies was not apparent.

Staphylococcus aureus = assay: Bactericide test, Staphylococcus aureus (agar streak plate); details: Staphylococcus aureus
From the text: as §1, §2, §3, §4

Streptococcus faecalis = assay: Bactericide test, Streptococcus faecalis (agar streak plate); details: Enterococcus faecalis
From the text: as §1, §2, §3, §4

Salmonella cholerasuis = assay: Bactericide test, Salmonella cholerasuis (agar streak plate); details: Salmonella
From the text: as §1, §2, §3, §4

Salmonella gallinarum = assay: Bactericide test, Salmonella gallinarum (agar streak plate); details: Salmonella enterica, GALLINARUM
From the text: as §1, §2, §3, §4

[1] = tested on: Erysipelothrix rhusiopathiae; assay: Bactericide test, Erysipelothrix rhusiopathiae (agar streak plate); details: Erysipelothrix rhusiopathiae
From the text: as §1, §2, §3

[2] = tested on: Bordetella bronchiseptica; assay: Bactericide test, Bordetella bronchiseptica (agar streak plate); details: Bordetella bronchiseptica
From the text: as §1, §2, §3

Salmonella typhimurium = assay: Bactericide test, Salmonella typhimurium (agar streak plate); details: Salmonella enterica, TYPHIMURIUM
From the text: as §1, §2, §3

Streptococcus agalactiae = assay: Bactericide test, Streptococcus agalactiae (agar streak plate); details: Streptococcus agalactiae
From the text: as §1, §2, §3

Streptococcus group E = assay: Bactericide test, Streptococcus group E (agar streak plate)
From the text: as §1, §2, §3

Vibrio coli = assay: Bactericide test, Vibrio coli (agar streak plate); details: Campylobacter coli
From the text: as §1, §2, §3

CN(C)[C@@H]1C(O)=C(C(N)=O)C(=O)[C@@]2(O)C(O)=C3C(=O)c4c(O)ccc(Cl)c4[C@@](C)(O)[C@H]3C[C@@H]12 [Chlortetracycline, reference compound]
inhibition at 1 ppm (Escherichia coli): 0% | inhibition at 4 ppm (Escherichia coli): 0% | inhibition at 16 ppm (Escherichia coli): 100% | inhibition at 64 ppm (Escherichia coli): 100% | inhibition at 1 ppm (Staphylococcus aureus): 0% | inhibition at 4 ppm (Staphylococcus aureus): 0% | inhibition at 16 ppm (Staphylococcus aureus): 100% | inhibition at 64 ppm (Staphylococcus aureus): 100% | inhibition at 1 ppm (Streptococcus faecalis): 100% | inhibition at 4 ppm (Streptococcus faecalis): 100% | inhibition at 16 ppm (Streptococcus faecalis): 100% | inhibition at 64 ppm (Streptococcus faecalis): 100% | inhibition at 1 ppm (Salmonella cholerasuis): 0% | inhibition at 4 ppm (Salmonella cholerasuis): 0% | inhibition at 16 ppm (Salmonella cholerasuis): 100% | inhibition at 64 ppm (Salmonella cholerasuis): 100% | inhibition at 1 ppm (Salmonella gallinarum; 1 ppm): 0% | inhibition at 4 ppm (Salmonella gallinarum; 4 ppm): 0% | inhibition at 16 ppm (Salmonella gallinarum; 16 ppm): 100% | inhibition at 64 ppm (Salmonella gallinarum; 64 ppm): 100% | inhibition at 1 ppm ([1]; 1 ppm): 0% | inhibition at 4 ppm ([1]; 4 ppm): 10% | inhibition at 16 ppm ([1]; 16 ppm): 100% | inhibition at 64 ppm ([1]; 64 ppm): 100% | inhibition at 1 ppm [2]: 0% | inhibition at 4 ppm [2]: 0% | inhibition at 16 ppm [2]: 0% | inhibition at 64 ppm [2]: 100% | inhibition at 1 ppm (Salmonella typhimurium): 0% | inhibition at 4 ppm (Salmonella typhimurium): 0% | inhibition at 16 ppm (Salmonella typhimurium): 0% | inhibition at 64 ppm (Salmonella typhimurium): 0% | inhibition at 1 ppm (Streptococcus agalactiae): 0% | inhibition at 4 ppm (Streptococcus agalactiae): 100% | inhibition at 16 ppm (Streptococcus agalactiae): 100% | inhibition at 64 ppm (Streptococcus agalactiae): 100% | inhibition at 1 ppm (Streptococcus group E): 0% | inhibition at 4 ppm (Streptococcus group E): 0% | inhibition at 16 ppm (Streptococcus group E): 100% | inhibition at 64 ppm (Streptococcus group E): 100% | inhibition at 1 ppm (Vibrio coli; 1 ppm): 0% | inhibition at 4 ppm (Vibrio coli; 4 ppm): 100% | inhibition at 16 ppm (Vibrio coli; 16 ppm): 100% | inhibition at 64 ppm (Vibrio coli; 64 ppm): 100%
